Measurements: patent US10000456B2, “Polycyclic compounds as lysophosphatidic acid receptor antagonists” (AMIRA PHARMACEUTICALS, INC., priority 2009, dated 2018)
Each block holds one compound with its values, some of them ahead of it.

Test system: A2058 human melanoma cells
Assay: LPA1 chemotaxis assay
Type: cell-based
Settings: LPA 100 nM, read-out: IC50, inhibition of LPA-driven chemotaxis
Description: Chemotaxis of the A2058 human melanoma cells was measured using the Neuroprobe CHEMOTX® System plates ([…], 5.7 mm diameter sites). The filter sites were coated with 0.001% fibronectin (Sigma) in 20 mM Hepes, pH 7.4 and allowed to dry. A2058 cells were serum-starved for 24 hours, then harvested with Cell Stripper and resuspended in DMEM containing 0.1% fatty-acid-free bovine serum albumin (BSA) to a concentration of 1×10^6/ml. Cells were mixed with an equal volume of test compound (2×) in DMEM containing 0.1% fatty-acid-free BSA and incubated at 37° C. for 15 minutes. LPA (100 nM in DMEM containing 0.1% fatty-acid-free BSA) or vehicle was added to each well of the lower chamber and 50 μl of the cell suspension/test compound mix was applied to the upper portion of the CHEMOTX® plate. Plates were incubated at 37° C. for three hours and then the cells removed from the upper portion by rinsing with PBS and scraping. The filter was dried then stained with HEMA 3® Staining System (Fisher Scientific). The absorbance of the filter was read at 590 nm and IC50s were determined using SYMYX® Assay Explorer.

Compound: Cc1noc(-c2ccc(-c3ccc(C4(C(=O)O)CC4)cc3)cc2)c1[C@@H](O)c1cn([C@H](C)c2ccccc2)nn1 [Compound 32, 1-[4′-(4-{(R)-Hydroxy-[1-((R)-1-phenyl-ethyl)-1H-[1,2,3]triazol-4-yl]-methyl}-3-methyl-isoxazol-5-yl)-biphenyl-4-yl]-cyclopropanecarboxylic acid]
IC50: < 100 nM

Compound: Cc1noc(-c2ccc(-c3ccc(C4(C(=O)O)CC4)cc3)cc2)c1Nc1cccc(-c2ccccc2)n1 [Compound 33, 1-{4′-[3-Methyl-4-(6-phenyl-pyridin-2-ylamino)-isoxazol-5-yl]-biphenyl-4-yl}-cyclopropanecarboxylic acid]
IC50: < 100 nM

Compound: Cc1noc(-c2ccc(-c3ccc(C4(C(=O)O)CC4)cc3)cc2)c1Nc1cccc(Cc2ccccc2)n1 [Compound 38, 1-{4′-[4-(6-Benzyl-pyridin-2-ylamino)-3-methyl-isoxazol-5-yl]-biphenyl-4-yl}-cyclopropanecarboxylic acid]
IC50: < 100 nM

Compound: Cc1noc(-c2ccc(-c3ccc(C4(C(=O)O)CC4)cc3)cc2)c1Nc1cccc(-c2ccccc2)c1 [Compound 39, 1-{4′-[4-(Biphenyl-3-ylamino)-3-methyl-isoxazol-5-yl]-biphenyl-4-yl}-cyclopropanecarboxylic acid]
IC50: < 100 nM

Compound: Cc1noc(-c2ccc(-c3ccc(C4(C(=O)O)CC4)cc3)cc2)c1Nc1cccc(-c2cccc(C(F)(F)F)c2)n1 [Compound 41, 1-(4′-{3-Methyl-4-[6-(3-trifluoromethyl-phenyl)-pyridin-2-ylamino]-isoxazol-5-yl}-biphenyl-4-yl)-cyclopropanecarboxylic acid]
IC50: < 100 nM

Compound: Cc1noc(-c2ccc(-c3ccc(C4(C(=O)O)CC4)cc3)cc2)c1Nc1nnc(Cc2ccccc2)o1 [Compound 44, 1-{4′-[4-(5-Benzyl-[1,3,4]oxadiazol-2-ylamino)-3-methyl-isoxazol-5-yl]-biphenyl-4-yl}-cyclopropanecarboxylic acid]
IC50: < 100 nM

Results, then the compound that gave them:

IC50: < 100 nM
Compound: Cc1noc(-c2ccc(-c3ccc(C4(C(=O)NS(C)(=O)=O)CC4)cc3)cc2)c1C(O)c1cn(Cc2ccccc2)nn1 (single isomer, unassigned) [Compound 91, N-[1-(4′-{4-[(1-Benzyl-1H-[1,2,3]triazol-4-yl)-hydroxy-methyl]-3-methyl-isoxazol-5-yl}-biphenyl-4-yl)-cyclopropanecarbonyl]-methanesulfonamide]

IC50: < 100 nM
Compound: Cc1noc(-c2ccc(-c3ccc(C4(C(=O)NS(C)(=O)=O)CC4)cc3)cc2)c1C(O)c1nnc(Cc2ccccc2)o1 (single isomer, unassigned) [Compound 92, N-[1-(4′-{4-[(5-Benzyl-[1,3,4]oxadiazol-2-yl)-hydroxy-methyl]-3-methyl-isoxazol-5-yl}-biphenyl-4-yl)-cyclopropanecarbonyl]-methanesulfonamide]

IC50: < 100 nM
Compound: Cc1noc(-c2ccc(-c3ccc(C4(C(=O)O)CC4)cc3)cc2)c1C(O)c1nnc(Cc2ccccc2)o1 (stereo not drawn) [Compound 13, 1-(4′-{4-[(5-Benzyl-[1,3,4]oxadiazol-2-yl)-hydroxy-methyl]-3-methyl-isoxazol-5-yl}-biphenyl-4-yl)-cyclopropanecarboxylic acid]

IC50: < 100 nM
Compound: Cc1noc(-c2ccc(-c3ccc(C4(C(=O)O)CC4)cc3)cc2)c1C(O)c1cn(C(C)c2ccccc2)nn1 (stereo not drawn) [Compound 23, 1-[4′-(4-{Hydroxy-[1-(1-phenyl-ethyl)-1H-[1,2,3]triazol-4-yl]-methyl}-3-methyl-isoxazol-5-yl)-biphenyl-4-yl]-cyclopropanecarboxylic acid]

IC50: < 100 nM
Compound: Cc1noc(-c2ccc(-c3ccc(C4(C(=O)O)CC4)cc3)cc2)c1C(O)c1cccc(Cc2ccccc2)c1 (stereo not drawn) [Compound 26, 1-(4′-{4-[(3-Benzyl-phenyl)-hydroxy-methyl]-3-methyl-isoxazol-5-yl}-biphenyl-4-yl)-cyclopropanecarboxylic acid]

IC50: < 100 nM
Compound: Cc1noc(-c2ccc(-c3ccc(C4(C(=O)O)CC4)cc3)cc2)c1C(O)c1cncc(Cc2ccccc2)c1 (stereo not drawn) [Compound 27, 1-(4′-{4-[(5-Benzyl-pyridin-3-yl)-hydroxy-methyl]-3-methyl-isoxazol-5-yl}-biphenyl-4-yl)-cyclopropanecarboxylic acid]
